# Measurements: PubChem BioAssay (NCI)
#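 Values below derive from 48-hour exposures of cells grown in 96-well plates, with endpoints linearly interpolated between the two concentrations bracketing the appropriate inhibition level. Abbreviation: GI50, concentration required for 50% inhibition of growth. TGI: total growth inhibition.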
# Columns and labels:
# Test in all cases: NCI anticancer screen, dose series, 48 h
# SK-MEL-2 melanoma = system: SK-MEL-2 melanoma
# HS 578T breast = system: HS 578T breast
# SN12C renal = system: SN12C renal
# HL-60(TB) leukemia = system: HL-60(TB) leukemia
# TK-10 renal = system: TK-10 renal
# OVCAR-8 ovarian = system: OVCAR-8 ovarian
# KM12 colon = system: KM12 colon
# K-562 leukemia = system: K-562 leukemia
# HT29 colon = system: HT29 colon
# NCI/ADR-RES ovarian = system: NCI/ADR-RES ovarian
# M14 melanoma = system: M14 melanoma
# MCF7 breast = system: MCF7 breast
# UACC-257 melanoma = system: UACC-257 melanoma
# HCT-116 colon = system: HCT-116 colon
# SK-MEL-5 melanoma = system: SK-MEL-5 melanoma
# U251 CNS = system: U251 CNS
# MDA-MB-231 breast = system: MDA-MB-231 breast
# CAKI-1 renal = system: CAKI-1 renal
# NCI-H460 lung = system: NCI-H460 lung
# UACC-62 melanoma = system: UACC-62 melanoma
# SR leukemia = system: SR leukemia
# RPMI-8226 leukemia = system: RPMI-8226 leukemia
# CCRF-CEM leukemia = system: CCRF-CEM leukemia
# SF-268 CNS = system: SF-268 CNS
# EKVX NSCLC = system: EKVX NSCLC
# IGROV1 ovarian = system: IGROV1 ovarian
# T-47D breast = system: T-47D breast
# RXF 393 renal = system: RXF 393 renal
# HOP-62 NSCLC = system: HOP-62 NSCLC
# SF-539 CNS = system: SF-539 CNS
# HCT-15 colon = system: HCT-15 colon
# NCI-H23 lung = system: NCI-H23 lung
# DU-145 prostate = system: DU-145 prostate
# OVCAR-3 ovarian = system: OVCAR-3 ovarian
# SW-620 colon = system: SW-620 colon
# MDA-MB-435 = system: MDA-MB-435
# OVCAR-4 ovarian = system: OVCAR-4 ovarian
# HOP-92 NSCLC = system: HOP-92 NSCLC
# SNB-19 CNS = system: SNB-19 CNS
# SF-295 CNS = system: SF-295 CNS
# UO-31 renal = system: UO-31 renal
# 786-0 renal = system: 786-0 renal
# SK-MEL-28 melanoma = system: SK-MEL-28 melanoma
# OVCAR-5 ovarian = system: OVCAR-5 ovarian
# SK-OV-3 ovarian = system: SK-OV-3 ovarian
# MALME-3M melanoma = system: MALME-3M melanoma
# HCC-2998 colon = system: HCC-2998 colon
# COLO 205 colon = system: COLO 205 colon
# A498 renal = system: A498 renal
# NCI-H226 lung = system: NCI-H226 lung
# LOX IMVI melanoma = system: LOX IMVI melanoma
# MOLT-4 leukemia = system: MOLT-4 leukemia
# PC-3 prostate = system: PC-3 prostate
# NCI-H522 lung = system: NCI-H522 lung
# BT-549 breast = system: BT-549 breast
# SNB-75 CNS = system: SNB-75 CNS
# A549 NSCLC = system: A549 NSCLC
# ACHN renal = system: ACHN renal
smiles,measurement,setting,value
CC(C)=CCC[C@@H](C)c1c2[nH]c3ccccc3sc-2c(C)c(=O)c1=O,TGI,SK-MEL-2 melanoma,30700 nM
same,TGI,HS 578T breast,> 48900 nM
same,TGI,SN12C renal,67200 nM
same,TGI,HL-60(TB) leukemia,5020 nM
same,TGI,TK-10 renal,> 75000 nM
same,TGI,OVCAR-8 ovarian,13800 nM
same,TGI,KM12 colon,> 35200 nM
same,TGI,K-562 leukemia,> 75000 nM
same,TGI,HT29 colon,> 27400 nM
same,TGI,NCI/ADR-RES ovarian,12100 nM
same,TGI,M14 melanoma,48500 nM
same,TGI,MCF7 breast,> 75000 nM
same,TGI,UACC-257 melanoma,> 75000 nM
same,TGI,HCT-116 colon,21800 nM
same,TGI,SK-MEL-5 melanoma,19700 nM
same,TGI,U251 CNS,> 75000 nM
same,TGI,MDA-MB-231 breast,> 75000 nM
same,TGI,CAKI-1 renal,35200 nM
same,TGI,NCI-H460 lung,> 27000 nM
same,TGI,UACC-62 melanoma,68600 nM
same,TGI,SR leukemia,> 61600 nM
same,TGI,RPMI-8226 leukemia,25000 nM
same,TGI,CCRF-CEM leukemia,> 42400 nM
same,TGI,SF-268 CNS,> 35300 nM
same,TGI,EKVX NSCLC,> 75000 nM
same,TGI,IGROV1 ovarian,26300 nM
same,TGI,T-47D breast,23100 nM
same,TGI,RXF 393 renal,32700 nM
same,TGI,HOP-62 NSCLC,24900 nM
same,TGI,SF-539 CNS,16300 nM
same,TGI,HCT-15 colon,> 75000 nM
same,TGI,NCI-H23 lung,41900 nM
same,TGI,DU-145 prostate,> 75000 nM
same,TGI,OVCAR-3 ovarian,> 45100 nM
same,TGI,SW-620 colon,> 75000 nM
same,TGI,MDA-MB-435,> 75000 nM
same,TGI,OVCAR-4 ovarian,> 75000 nM
same,TGI,HOP-92 NSCLC,> 75000 nM
same,TGI,SNB-19 CNS,> 75000 nM
same,TGI,SF-295 CNS,40600 nM
same,TGI,UO-31 renal,14400 nM
same,TGI,786-0 renal,24100 nM
same,TGI,SK-MEL-28 melanoma,> 75000 nM
same,TGI,OVCAR-5 ovarian,> 75000 nM
same,TGI,SK-OV-3 ovarian,> 75000 nM
same,TGI,MALME-3M melanoma,> 29100 nM
same,TGI,HCC-2998 colon,> 36800 nM
same,TGI,COLO 205 colon,> 66700 nM
same,TGI,A498 renal,35500 nM
same,TGI,NCI-H226 lung,11100 nM
same,TGI,LOX IMVI melanoma,> 29000 nM
same,TGI,MOLT-4 leukemia,> 75000 nM
same,TGI,PC-3 prostate,> 75000 nM
same,TGI,NCI-H522 lung,8600 nM
same,TGI,BT-549 breast,> 75000 nM
same,TGI,SNB-75 CNS,> 43300 nM
same,TGI,A549 NSCLC,35600 nM
same,TGI,ACHN renal,10800 nM
c1ccc(CC(NCCNC(Cc2ccccc2)c2ccccc2)c2ccccc2)cc1 (configuration not stated),GI50,SK-MEL-2 melanoma,1160 nM
same,TGI,SK-MEL-2 melanoma,2570 nM
same,GI50,HS 578T breast,1640 nM
same,TGI,HS 578T breast,4120 nM
same,GI50,SN12C renal,517 nM
same,TGI,SN12C renal,1960 nM
same,GI50,HL-60(TB) leukemia,322 nM
same,TGI,HL-60(TB) leukemia,890 nM
same,GI50,TK-10 renal,1460 nM
same,TGI,TK-10 renal,4210 nM
same,GI50,KM12 colon,384 nM
same,TGI,KM12 colon,1520 nM
same,GI50,K-562 leukemia,307 nM
same,TGI,K-562 leukemia,890 nM
same,GI50,HT29 colon,227 nM
same,TGI,HT29 colon,567 nM
same,GI50,NCI/ADR-RES ovarian,643 nM
same,TGI,NCI/ADR-RES ovarian,2200 nM
same,GI50,M14 melanoma,302 nM
same,TGI,M14 melanoma,1010 nM
same,GI50,MCF7 breast,311 nM
same,TGI,MCF7 breast,1140 nM
same,GI50,UACC-257 melanoma,1020 nM
same,TGI,UACC-257 melanoma,2400 nM
same,GI50,HCT-116 colon,200 nM
same,TGI,HCT-116 colon,486 nM
same,GI50,SK-MEL-5 melanoma,271 nM
same,TGI,SK-MEL-5 melanoma,779 nM
same,GI50,U251 CNS,406 nM
same,TGI,U251 CNS,1430 nM
same,GI50,MDA-MB-231 breast,331 nM
same,TGI,MDA-MB-231 breast,1240 nM
same,GI50,CAKI-1 renal,456 nM
same,TGI,CAKI-1 renal,2440 nM
same,GI50,NCI-H460 lung,294 nM
same,TGI,NCI-H460 lung,719 nM
same,GI50,UACC-62 melanoma,491 nM
same,TGI,UACC-62 melanoma,1860 nM
same,GI50,SR leukemia,243 nM
same,TGI,SR leukemia,587 nM
same,GI50,RPMI-8226 leukemia,243 nM
same,TGI,RPMI-8226 leukemia,524 nM
same,GI50,CCRF-CEM leukemia,490 nM
same,TGI,CCRF-CEM leukemia,2570 nM
same,GI50,SF-268 CNS,801 nM
same,TGI,SF-268 CNS,7120 nM
same,GI50,EKVX NSCLC,482 nM
same,TGI,EKVX NSCLC,3170 nM
same,GI50,IGROV1 ovarian,605 nM
same,TGI,IGROV1 ovarian,2840 nM
same,GI50,T-47D breast,243 nM
same,TGI,T-47D breast,693 nM
same,GI50,RXF 393 renal,260 nM
same,TGI,RXF 393 renal,705 nM
same,GI50,HOP-62 NSCLC,1170 nM
same,TGI,HOP-62 NSCLC,2860 nM
same,GI50,SF-539 CNS,451 nM
same,TGI,SF-539 CNS,1640 nM
same,GI50,HCT-15 colon,463 nM
same,TGI,HCT-15 colon,1640 nM
same,GI50,NCI-H23 lung,589 nM
same,TGI,NCI-H23 lung,2550 nM
same,GI50,DU-145 prostate,395 nM
same,TGI,DU-145 prostate,1870 nM
same,GI50,OVCAR-3 ovarian,398 nM
same,TGI,OVCAR-3 ovarian,1460 nM
same,GI50,SW-620 colon,401 nM
same,TGI,SW-620 colon,1380 nM
same,GI50,MDA-MB-435,817 nM
same,TGI,MDA-MB-435,2220 nM
same,GI50,OVCAR-4 ovarian,415 nM
same,TGI,OVCAR-4 ovarian,2020 nM
same,GI50,HOP-92 NSCLC,369 nM
same,TGI,HOP-92 NSCLC,1480 nM
same,GI50,SNB-19 CNS,964 nM
same,TGI,SNB-19 CNS,4150 nM
same,GI50,SF-295 CNS,372 nM
same,TGI,SF-295 CNS,1560 nM
same,GI50,UO-31 renal,415 nM
same,TGI,UO-31 renal,1960 nM
same,GI50,786-0 renal,383 nM
same,TGI,786-0 renal,1590 nM
same,GI50,SK-MEL-28 melanoma,1220 nM
same,TGI,SK-MEL-28 melanoma,2800 nM
same,GI50,OVCAR-5 ovarian,1240 nM
same,TGI,OVCAR-5 ovarian,3570 nM
same,GI50,SK-OV-3 ovarian,1300 nM
same,TGI,SK-OV-3 ovarian,3930 nM
same,GI50,MALME-3M melanoma,339 nM
same,TGI,MALME-3M melanoma,1440 nM
same,GI50,HCC-2998 colon,393 nM
same,TGI,HCC-2998 colon,1550 nM
same,GI50,COLO 205 colon,191 nM
same,TGI,COLO 205 colon,382 nM
same,GI50,A498 renal,1250 nM
same,TGI,A498 renal,2660 nM
same,GI50,NCI-H226 lung,1120 nM
same,TGI,NCI-H226 lung,2790 nM
same,GI50,LOX IMVI melanoma,185 nM
same,TGI,LOX IMVI melanoma,375 nM
same,GI50,MOLT-4 leukemia,306 nM
same,TGI,MOLT-4 leukemia,959 nM
same,GI50,PC-3 prostate,409 nM
same,TGI,PC-3 prostate,1780 nM
same,GI50,NCI-H522 lung,320 nM
same,TGI,NCI-H522 lung,1060 nM
same,GI50,BT-549 breast,1260 nM
same,TGI,BT-549 breast,3000 nM
same,GI50,SNB-75 CNS,1430 nM
same,TGI,SNB-75 CNS,4560 nM
same,GI50,A549 NSCLC,1100 nM
same,TGI,A549 NSCLC,4690 nM
same,GI50,ACHN renal,585 nM
same,TGI,ACHN renal,2490 nM
